Counter-ions that a name gives are not always drawn.
How the values were obtained:
[1] = cited from earlier work; for toxic dose: long-acting anesthetics
[2] = Toxic and maximum doses of local anesthetics (state of the art)
Text: The Articaine hydrochloride always belongs to the group of the short-acting local anesthetics.

[3] = combined with a vasoconstrictor such as adrenaline

Row | SMILES | toxic dose [1] | maximum volume ([2]; 5 mg/ml solution (0.5%)) | further results
1 | CCCNC(C)C(=O)Nc1c(C)csc1C(=O)OC (centres unmarked) [Articaine hydrochloride] |  |  | toxic dose / tolerance compared with other short-acting anesthetics ([1]; in vivo): overlapping to that of the lidocaine and mepivacaine
2 | CCCCN1CCCC[C@H]1C(=O)Nc1c(C)cccc1C [Levobupivacaine hydrochloride] | 2 mg/kg body | 30 mL | 
3 | CCCCN1CCCCC1C(=O)Nc1c(C)cccc1C (centres unmarked) [Bupivacaine hydrochloride] | 2 mg/kg body | 30 mL | 
4 | CCN(CC)CC(=O)Nc1c(C)cccc1C [Lidocaine, Lidocaine hydrochloride] |  |  | maximum dosage [1, 3]: 7 mg/kg; maximum dose [1, 3]: 500 mg; maximum volume ([2]; human, in vivo): 15 mL
